# Results reported in patent publication US20160256535A1, “HEXAPEPTIDE AND USES THEREOF” (priority 2013, published 2016).
# Residues, ends and D or L forms follow the SMILES beside them.
# B1: rMnSOd: recombinant form of LSA-type-MnSOD bearing the 24 amino acid leader peptide at the N-terminus (protein, UniProt P04179 1-222, looked up)
# chain: MLSRAVCGTSRQLAPVLGYLGSRQKHSLPDLPYDYGALEPHINAQIMQLHHSKHHAAYVNNLNVTEEKYQEALAKGDVTAQIALQPALKFNGGGHINHSIFWTNLSPNGGGEPKGELLEAIKRDFGSFDKFKEKLTAASVGVQGSGWGWLGFNKERGHLQIAACPNQDPLQGTTGLIPLLGIDVWEHAYYLQYKNVRPDYLKAIWNVINWENVTERYMACKK
# modifications: full-length
# Tests used:
# A2780 = experiment: Determination of platinum in culture medium and cell pellet by atomic absorption spectrophotometry; format: cell-based, human; conditions: 92 μM, 3 hours
# Procedure: (§1) The cells to be examined, after the incubation period, were harvested, washed twice in buffered solution (PBS) and treated with 50 μl of 35% HNO3 for 16 hours. The platinum (Pt) contained in the culture medium or in the cell pellet was determined by spectrophotometer at atomic absorption (Analyst 800, Perkin-Elmer, Norwalk, Conn.) using the following criteria: temperature of pretreatment, 1300° C., temperature of atomizing 2200° C. 0.015 μg of palladium were used (palladium has been used for the modification of the matrix) and 0.01 μg of Mg (NO3)2 as a modifier of the matrix. The determinations were performed using a graphite furnace equipped with the correction system of the Zeeman effect. For the determination of the metal, tubes of pyrolytic graphite coated with THGA were used (Perkin-Elmer) with an integrated “vov-type platform” system. A standard solution of platinum in 2.5% HNO3 (Spectrascan) was used as a mother solution for the construction of a calibration curve with three points of reference. Each determination was performed independently, in triplicate (11).
# A375 = experiment: as above; format: cell-based, human; conditions: 92 μM, 3 hours
# Procedure: as §1
# DU145 = experiment: as above; format: cell-based, human; conditions: 92 μM, 3 hours
# Procedure: as §1
# HUH-7 = experiment: as above; format: cell-based, human; conditions: 92 μM, 3 hours
# Procedure: as §1
# MCF-7 = experiment: as above; format: cell-based, human; conditions: 92 μM, 3 hours
# Procedure: as §1
# [1] = test system: Human breast carcinoma MCF-7; experiment: Cytotoxicity by LDH release (Cytotox 96); format: cell-based; conditions: % of total LDH; for LDH release: 1.5 μM, 24 hr or 48 hr
# Procedure: (§2) The leader peptide of 24 aa. […] The release of lactate dehydrogenase (LDH) was then measured quantitatively in the supernatant of the culture medium of the cells after 24 hr of incubation, using the Cytotox 96 non riadioactive cytotoxic assay kit in compliance with the technical indications provided by Promega. The experiments were performed in triplicate in an independent manner, using different preparations. (Table III)
# (§3) After the incubation the amount of lactate dehydrogenase (LDH) released from cells into the supernatant was measured. This quantity was expressed as a percentage of the total LDH (released by cells in which cell lysis had been induced using a detergent). Approximately 3% of LDH was found in the culture medium of not treated cells.
# A-2780 = experiment: Cytotoxicity by LDH release (Cytotox 96); format: cell-based, human; conditions: % of total LDH; for LDH release: 1.5 μM, 24 hr or 48 hr
# Procedure: as §2, §3
# HUT-7 Hepatocarcinoma = experiment: Cytotoxicity by LDH release (Cytotox 96); format: cell-based, human; parameters: LDH μelease: dose or concentration left out as unconfirmed; conditions: % of total LDH; for LDH release: 1.5 μM, 24 hr or 48 hr
# Procedure: as §2, §3
# MRC-5 = experiment: Cytotoxicity by LDH release (Cytotox 96); format: cell-based, human; parameters: LDH μelease: dose or concentration left out as unconfirmed; conditions: % of total LDH; for LDH release: 1.5 μM, 24 hr or 48 hr
# Procedure: as §2, §3
# PaTu Ca pancreatic = experiment: Cytotoxicity by LDH release (Cytotox 96); format: cell-based, human; parameters: LDH μelease: dose or concentration left out as unconfirmed; conditions: % of total LDH; for LDH release: 1.5 μM, 24 hr or 48 hr
# Procedure: as §2, §3
# [2] = test system: tumor cells of human origin; experiment: Immuno-histochemical assessment of internalization; format: cell-based; conditions: text summary of Table II
# Procedure: (§4) Subsequently, a cytospin was used to obtain a smear of cells on slides. The cells were then placed in Zamboni solution (4% paraformaldehyde, 15% picric acid) for 60 min and then washed with a solution of 1×PBS and incubated for 5 min with 3% hydrogen peroxide to suppress the action of endogenous peroxidase. The immuno-coloring was performed using the Dako LSA+System HRP kit (DAKO, CA, USA). The incubation lasted 30 minutes with primary antibody anti-peptide leader of 24 aa (1:200), produced in rabbits. This phase was followed by sequential method that requires a 30-min incubation with biotinylated antibody and peroxidase-labeled streptavidin. To complete the reaction of differentiation, a substrate-chromogen solution was engaged. Cell smears were colored with hematoxylin.
# (§5) A positive reaction is represented by a brownish coloration. A blue coloration indicates negativity.
# The immunocytochemical analysis was performed using a polyclonal antibody able to recognize the amino acid sequence of the peptide leader of rMnSOD (7), ie of 24 aa. among which there are also those that form the hexapeptide.
# After incubation with these molecules, the cells were washed and treated with the polyclonal antibody for three hours at rt, and then the cells were washed with a solution of PBS [17, 18]. In control cells (not treated and those treated with the antibody alone), the reaction is negative. […]
# [3] = Cytotoxicity by LDH release, summary over the cell lines; format: cell-based; conditions: human
# Human Normal Lymphocytes = experiment: Lymphocyte penetration, immunocytochemistry / immunofluorescence; format: cell-based; conditions: 3 hour incubation
# Procedure: Human Normal Lymphocytes cells were collected from healthy donors and purified using Ficoll Hystopaque density gradient centrifugation. The cells were cultured at a density of 1×10^6 cells/mL in RPMI media supplemented with 1% Penstrep and 10% FBS in a humidified atmosphere containing 5% CO2 at 37° C.
# (§6) A cytospin was used to smear cells onto slides. The smears were fixed in Zamboni solution (4% paraformaldehyde, 15% picric acid) for 60 minutes and then washed with 1×PBS and incubated for five minutes with 3% hydrogen peroxide to quench endogenous peroxidase activity. Immunostaining was performed using the DAKO LSA+System HRP kit. Rabbit anti-rMnSOD-Lp (1:200), was incubated on slides for 30 minutes, followed by incubation with the biotinylated secondary antibody for 30 minutes and peroxidase-labeled streptavidin for 30 minutes. To complete the reaction, a substrate-chromogen solution was used. The smears were counterstained with hematoxylin.
# white blood cells = experiment: White blood cell penetration, immunocytochemistry at light microscopy; format: cell-based, human; conditions: healthy subject
# Procedure: as §6, with “Lymphocytes were incubated for five hours in the presence of fluorescinated Hexapeptide 92 μM. A cytospin” for “A cytospin”
# Jurkat cells = experiment: Jurkat cell penetration, immunofluorescence; format: cell-based, human; conditions: 92 μM, 3 h
# Procedure: Jurkat cells (ATTC, UK) were seeded at density of 150000 cells/well in RPMI media supplemented with 1% Penstrep and 10% FBS in a humidified atmosphere containing 5% CO2 at 37°. The next day, the cells were incubated with 92 μM AVCGTG (SEQ ID NO. 1)-FITC for 3 h in multiwell 24. Subsequently, a cytospin was used to smear cells onto slides. The smears were fixed with 4% paraformaldehyde/PBS for 10 min and rinsed twice with 1×PBS containing 0.1% Triton to remove traces of fixative. Cell samples without AVCGTG (SEQ ID NO. 1)-FITC were used for the background control. After blocking solution with 5% NGS (Normal Goat Serum, VECTOR) 1×PBS+0,1% Triton X-100, was added for 30 minutes. After removing the blocking solution, cells were incubated with primary antibody hexapeptide, diluted 1:200 in blocking solution, overnight at 4° C. The following day, after washing with lx PBS and 0.1% Triton X-100 for 10 minutes, secondary antibody (ALEXA FLUO 488A, SANTACRUZ) diluted 1:400 with 1×PBS and 0.1% Triton X-100 for 2 h was added. The excess of antibody was removed with 3 washes with 1×PBS.
# Nuclei were stained with DAPI (1 μg/mL). The slides were mounted and stored in the dark at 4° C. and then observed by fluorescence microscope ZEISS HB050 by using the software Axion Vision Re1.4.8.
# cells = experiment: Ability of hexapeptide conjugated to fluorescein to enter cells (immunocytochemistry); format: cell-based; conditions: immunocytochemistry examination
# From the text: The test results are positive and confirms the previous data.
# [4] = test system: Human breast cancer MCF-7; experiment: Immuno-histochemical assessment of internalization (Ab anti-leader peptide 24 aa); format: cell-based; conditions: 3 hours, 92 μM, positive = brownish coloration
# Procedure: as §4, with “The cells were then placed in Zamboni solution (4% paraformaldehyde, 15% picric acid) for 60 min and then washed with a solution of 1×PBS and incubated for 5 min with 3% hydrogen peroxide to suppress the action of endogenous peroxidase.” left out
# as §5
# (§7) After incubation with these molecules, the cells were washed and treated with the polyclonal antibody for three hours at rt, and then the cells were washed with a solution of PBS [17, 18].
# A-2780 Ovarian Ca = experiment: as above; format: cell-based, human; conditions: 3 hours, 92 μM, positive = brownish coloration
# Procedure: as §4, with “The cells were then placed in Zamboni solution (4% paraformaldehyde, 15% picric acid) for 60 min and then washed with a solution of 1×PBS and incubated for 5 min with 3% hydrogen peroxide to suppress the action of endogenous peroxidase.” left out
# as §5, §7
# A-375 Melanoma = experiment: as above; format: cell-based, human; conditions: 3 hours, 92 μM, positive = brownish coloration
# Procedure: as §4, with “The cells were then placed in Zamboni solution (4% paraformaldehyde, 15% picric acid) for 60 min and then washed with a solution of 1×PBS and incubated for 5 min with 3% hydrogen peroxide to suppress the action of endogenous peroxidase.” left out
# as §5, §7
# [5] = test system: DU 145 Renal Cell Carcinoma; experiment: as above; format: cell-based, human; conditions: 3 hours, 92 μM, positive = brownish coloration
# Procedure: as §4, with “The cells were then placed in Zamboni solution (4% paraformaldehyde, 15% picric acid) for 60 min and then washed with a solution of 1×PBS and incubated for 5 min with 3% hydrogen peroxide to suppress the action of endogenous peroxidase.” left out
# as §5, §7
# HUH HCC = experiment: as above; format: cell-based, human; conditions: 3 hours, 92 μM, positive = brownish coloration
# Procedure: as §4, with “The cells were then placed in Zamboni solution (4% paraformaldehyde, 15% picric acid) for 60 min and then washed with a solution of 1×PBS and incubated for 5 min with 3% hydrogen peroxide to suppress the action of endogenous peroxidase.” left out
# as §5, §7
Molecule,Cellular uptake of Pt (A2780),Pt cell pellet (A2780),Cellular uptake of Pt (A375),Pt cell pellet (A375),Cellular uptake of Pt (DU145),Pt cell pellet (DU145),Cellular uptake of Pt (HUH-7),Pt cell pellet (HUH-7),Cellular uptake of Pt (MCF-7),Pt cell pellet (MCF-7),LDH release [1],LDH release (A-2780),LDH release (HUT-7 Hepatocarcinoma),LDH release (MRC-5),LDH release (PaTu Ca pancreatic),reaction with polyclonal antibody against leader peptide of 24 aa [2],"internalization, reaction with Ab anti-peptide (24 aa) [4]","internalization, reaction with Ab anti-peptide (24 aa) (A-2780 Ovarian Ca)","internalization, reaction with Ab anti-peptide (24 aa) (A-375 Melanoma)","internalization, reaction with Ab anti-peptide (24 aa) [5]",further results
"N.N.[Cl][Pt][Cl] [CC, cisplatin, reference compound]",0.75%,163 µg/L,1.5%,399.9 µg/L,0.9%,167.3 µg/L,1.2%,242.9 µg/L,2.6%,760 µg/L,48%,36%,32%,37%,25%,,,,,,
"CC(C)[C@H](NC(=O)[C@H](C)N)C(=O)N[C@@H](CS)C(=O)NCC(=O)N[C@H](C(=O)NCC(=O)O)[C@@H](C)O [Hexapeptide, AVCGTG] (H-AVCGTG-OH; N-terminus assumed)",,,,,,,,,,,,,,,,positive,,,,,"LDH μelease ([1]; 1.5 mM): 5%; LDH μelease (A-2780; 1.5 mM): 5%; LDH μelease (HUT-7 Hepatocarcinoma): 4%; LDH μelease (MRC-5; not treated cells): 2%; LDH μelease (PaTu Ca pancreatic; not treated cells): 3%; mortality at 24 hr, 1.5 μM [3]: 2 to 5%; internalization in lymphocytes (Human Normal Lymphocytes): cytoplasmic internalization; penetration into white blood cells (white blood cells): positive; penetration into Jurkat cells (Jurkat cells): cytoplasmic internalization"
ACTGVG [reference compound],,,,,,,,,,,,,,,,,,,,,penetration into the cells (cells): does not penetrate into the cells
Lp-CC (AVCGTG),5.9%,144 µg/L,15.5%,372 µg/L,13.8%,342.8 µg/L,5.2%,118.7 µg/L,4.2%,97 µg/L,77%,85%,69%,40%,60%,,positive,positive,positive,positive,"internalization, reaction with Ab anti-peptide (24 aa) (HUH HCC): positive"
B1,,,,,,,,,,,,,,,,positive,positive,positive,positive,positive,"internalization, reaction with Ab anti-peptide (24 aa) (HUH HCC): positive"
